Where two headings read alike, the source gives them in different places.
System: 786-O-Hif-Luc cells (luciferase gene driven by multiple HIF responsive elements)
Experiment: Luciferase Assay
Assay type: cell-based
Conditions: 24 h, read-out: Mean Luciferease EC50
Procedure: A pool of infected cells were then selected against 2 μg/mL of puromycin (P8833, Sigma) for 10 days followed by limited dilution to select single clones.
Each concentration was tested in triplicate. After about 24 hours, luciferase activity was determined using ONE-Glo Luciferase Assay Reagent (E6110, Promega) following the manufacturer's recommended procedure. EC50 were calculated by using Dotmatics software.

[1] = 786-O-Hif-Luc cells, about 24 hours

Row | EC50 [1] [nM] | EC50 [nM] | Structure (SMILES)
1 | 100 | – | CS(=O)(=O)c1ccc(Oc2cc(F)cc(C#N)c2)c2c1[C@H](O)C(F)(Cl)C2 (stereo partly drawn) [Compound 270, 3-(((1S)-2-chloro-2-fluoro-1-hydroxy-7-(methylsulfonyl)-2,3-dihydro-1H-inden-4-yl)oxy)-5-fluorobenzonitrile]
2 | 3410 | – | O=S(=O)(c1ccc(Oc2cc(Cl)cc(Cl)c2)c(Br)c1)C(F)(F)F [Compound 172, 2-Bromo-1-(3,5-dichlorophenoxy)-4-((trifluoromethyl)sulfonyl)benzene]
3 | 1380 | – | N#Cc1c(S(=O)(=O)C(F)(F)F)ccc(Oc2cc(F)cc(Cl)c2)c1Cl [Compound 111, 2-Chloro-3-(3-chloro-5-fluorophenoxy)-6-((trifluoromethyl)sulfonyl)benzonitrile]
4 | 480 | – | Cc1c(Oc2cc(F)cc(C#N)c2)ccc(S(=O)(=O)C(F)(F)F)c1CO [Compound 146, 3-Fluoro-5-[3-(hydroxymethyl)-2-methyl-4-(trifluoromethylsulfonyl)phenoxy]benzonitrile]
5 | 390 | – | Cc1c(Oc2cc(F)cc(C#N)c2)ccc(S(=O)(=O)C(F)(F)F)c1Cl [Compound 144, 3-Fluoro-5-[3-chloro-2-methyl-4-(trifluoromethylsulfonyl)phenoxy]benzonitrile]
6 | 430 | – | Cc1c(Oc2cc(F)cc(C#N)c2)ccc(S(=O)(=O)C(F)(F)F)c1C=O [Compound 145, 3-Fluoro-5-[3-formyl-2-methyl-4-(trifluoromethylsulfonyl)phenoxy]benzonitrile]
7 | 1080 | – | N#Cc1cncc(Oc2ccc(S(N)(=O)=O)c3c2CC(F)(F)[C@H]3O)c1 [Compound 253, (S)-7-((5-Cyanopyridin-3-yl)oxy)-2,2-difluoro-3-hydroxy-2,3-dihydro-1H-indene-4-sulfonamide]
8 | – | 24 | [2H][C@]1(O)c2c(S(C)(=O)=O)ccc(Oc3cc(F)cc(C#N)c3)c2CC1(F)F [Compound 247, (S)-3-((2,2-Difluoro-1-hydroxy-7-(methylsulfonyl)-2,3-dihydro-1H-inden-4-yl-1-d)oxy)-5-fluorobenzonitrile]
9 | – | 470 | CS(=O)(=O)c1ccc(Oc2cc(F)cc(C#N)c2)c2c1[C@H](O)[C@@H](F)C2 [Compound 271, 3-fluoro-5-(((1S,2S)-2-fluoro-1-hydroxy-7-(methylsulfonyl)-2,3-dihydro-1H-inden-4-yl)oxy)benzonitrile]
10 | 2400 | – | Cc1c(Oc2cc(F)cc(Cl)c2)ccc(S(=O)(=O)C(F)(F)F)c1Br [Compound 140, 3-Bromo-1-(3-chloro-5-fluoro-phenoxy)-2-methyl-4-(trifluoromethylsulfonyl)benzene]
11 | 2900 | – | Cc1c(S(=O)(=O)C(F)F)ccc(Oc2cc(F)cc(C#N)c2)c1C#N [Compound 33, 6-(3-Cyano-5-fluorophenoxy)-3-((difluoromethyl)sulfonyl)-2-methylbenzonitrile]
12 | 1600 | – | O=S(=O)(c1ccc(Oc2ccc(F)cc2)c2c1C(O)CC2)C(F)(F)F (centres unmarked) [Compound 212, 4-(4-Fluorophenoxy)-7-((trifluoromethyl)sulfonyl)-2,3-dihydro-1H-inden-1-ol]
13 | 22 | – | N#Cc1cc(F)cc(Oc2ccc(S(=O)(=O)CCl)c3c2CC(F)(F)[C@H]3O)c1 [Compound 215, (S)-3-((7-((Chloromethyl)sulfonyl)-2,2-difluoro-1-hydroxy-2,3-dihydro-1H-inden-4-yl)oxy)-5-fluorobenzonitrile]
14 | 8800 | – | N=S(=O)(c1ccc(Oc2cc(F)cc(Cl)c2)c(Br)c1Cl)C(F)(F)F (centres unmarked) [Compound 75, (3-bromo-2-chloro-4-(3-chloro-5-fluorophenoxy)phenyl)(imino)(trifluoromethyl)-λ^6-sulfanone]
15 | 520 | – | O=S(=O)(c1ccc(Oc2cc(F)cc(Cl)c2)c(Br)c1C=NO)C(F)(F)F [Compound 107, 2-Bromo-3-(3-chloro-5-fluorophenoxy)-6-((trifluoromethyl)sulfonyl)benzaldehyde oxime]
16 | 340 | – | O=Cc1c(S(=O)(=O)C(F)(F)F)ccc(Oc2cc(F)cc(Cl)c2)c1Cl [Compound 112, 2-Chloro-3-(3-chloro-5-fluorophenoxy)-6-((trifluoromethyl)sulfonyl)benzaldehyde]
17 | – | 250 | N#Cc1cc(F)cc(Oc2ccc(S(N)(=O)=O)c3c2[C@H](F)C(F)(F)[C@H]3O)c1 [Compound 339, (1S,3S)-7-(3-cyano-5-fluoro-phenoxy)-1,2,2-trifluoro-3-hydroxy-indane-4-sulfonamide]
18 | 5600 | – | CCOC(=O)/C=C/c1c(S(=O)(=O)C(F)(F)F)ccc(Oc2cc(F)cc(C#N)c2)c1C [Compound 148, Ethyl (E)-3-(3-(3-cyano-5-fluorophenoxy)-2-methyl-6-((trifluoromethyl)sulfonyl)phenyl)acrylate]
19 | 3000 | – | N#Cc1cccc(Oc2ccc(S(=O)(=O)C(F)(F)F)cc2Br)c1 [Compound 117, 3-(2-Bromo-4-((trifluoromethyl)sulfonyl)phenoxy)benzonitrile]
20 | 3300 | – | CC(O)c1c(S(=O)(=O)C(F)(F)F)ccc(Oc2cc(F)cc(Cl)c2)c1Br (centres unmarked) [Compound 103, 1-(2-Bromo-3-(3-chloro-5-fluorophenoxy)-6-((trifluoromethyl)sulfonyl)phenyl)ethan-1-ol]
21 | 120 | – | N#Cc1cc(F)cc(Oc2ccc(S(=O)(=O)C(F)F)c3c2CC(F)(F)[C@@H]3O)c1 [Compound 237, (R)-3-((7-((difluoromethyl)sulfonyl)-2,2-difluoro-1-hydroxy-2,3-dihydro-1H-inden-4-yl)oxy)-5-fluorobenzonitrile]

Second part, the molecule before the results:

Row | Structure (SMILES) | EC50 [1] [nM] | EC50 [nM]
22 | CS(=N)(=O)c1ccc(Oc2cc(F)cc(F)c2)c2c1[C@H](O)C(F)(F)C2 (stereo partly drawn) [Compound 192, ((S)-7-(3,5-Difluorophenoxy)-2,2-difluoro-3-hydroxy-2,3-dihydro-1H-inden-4-yl)(imino)(methyl)-λ^6-sulfanone] | 280 | –
23 | N#CN=S(=O)(CF)c1ccc(Oc2cc(F)cc(C#N)c2)c2c1[C@H](O)C(F)(F)C2 (single isomer, unassigned) [Compound 285] | 100 | –
24 | O=[N+]([O-])c1ccc(Oc2cc(F)cc(Cl)c2)c2c1C(O)CC2 (centres unmarked) [Compound 255, 4-(3-Chloro-5-fluorophenoxy)-7-nitro-2,3-dihydro-1H-inden-1-ol] | 1390 | –
25 | NS(=O)(=O)c1ccc(Oc2cc(F)cc(F)c2)c2c1[C@H](O)C(F)(F)C2 [Compound 256, (S)-7-(3,5-Difluorophenoxy)-2,2-difluoro-3-hydroxy-2,3-dihydro-1H-indene-4-sulfonamide] | – | 49
26 | O=S(=O)(c1ccc(Oc2ccc(F)c(Br)c2)c2c1[C@H](O)C(F)(F)C2)C(F)F [Compound 194, (S)-4-(3-Bromo-4-fluorophenoxy)-7-((difluoromethyl)sulfonyl)-2,2-difluoro-2,3-dihydro-1H-inden-1-ol] | 330 | –
27 | O=S(=O)(c1ccc(Oc2cccc3[nH]ncc23)c2c1[C@H](O)C(F)(F)C2)C(F)(F)F [Compound 263, (S)-4-((1H-Indazol-4-yl)oxy)-2,2-difluoro-7-((trifluoromethyl)sulfonyl)-2,3-dihydro-1H-inden-1-ol] | 780 | –
28 | N#Cc1cc(F)cc(Oc2ccc(S(=O)(=O)C(F)F)c3c2CC(F)(F)[C@H]3N)c1 [Compound 207, (S)-3-((1-Amino-7-((difluoromethyl)sulfonyl)-2,2-difluoro-2,3-dihydro-1H-inden-4-yl)oxy)-5-fluorobenzonitrile] | 830 | –
29 | O=S(=O)(CF)c1ccc(Oc2cncc(Cl)c2)c2c1[C@H](O)C(F)(F)C2 [Compound 187, (S)-4-((5-Chloropyridin-3-yl)oxy)-2,2-difluoro-7-((fluoromethyl)sulfonyl)-2,3-dihydro-1H-inden-1-ol] | 98 | –
30 | Cc1c(S(=O)(=O)C(F)F)ccc(Oc2cc(F)cc(Cl)c2)c1C#N [Compound 32, 6-(3-Chloro-5-fluorophenoxy)-3-((difluoromethyl)sulfonyl)-2-methylbenzonitrile] | 1900 | –
31 | O=S(=O)(CF)c1ccc(Oc2cc(F)cc(Cl)c2)c2c1[C@H](O)CC2 [Compound 61, (R)-4-(3-Chloro-5-fluorophenoxy)-7-((fluoromethyl)sulfonyl)-2,3-dihydro-1H-inden-1-ol] | 110 | –
32 | CS(=O)(=O)c1ccc(Oc2cc(F)cc(C#N)c2)c2c1C(=O)C(F)(Cl)C2 (centres unmarked) [Compound 269, 3-((2-chloro-2-fluoro-7-(methylsulfonyl)-1-oxo-2,3-dihydro-1H-inden-4-yl)oxy)-5-fluorobenzonitrile] | 19400 | –
33 | Cc1c(S(C)(=O)=O)ccc(Oc2cc(F)cc(Cl)c2)c1C(F)F [Compound 53, 1-(3-Chloro-5-fluorophenoxy)-2-(difluoromethyl)-3-methyl-4-(methylsulfonyl)benzene] | 3300 | –
34 | COc1cc(F)cc(Oc2ccc(S(=O)(=O)C(F)F)c3c2CC[C@H]3O)c1 [Compound 6, (R)-7-((difluoromethyl)sulfonyl)-4-(3-fluoro-5-methoxyphenoxy)-2,3-dihydro-1H-inden-1-ol] | 75 | –
35 | O=S(=O)(c1ccc(Oc2cc(F)cc(F)c2)c2c1C=CC2)C(F)F [Compound 21, 4-((Difluoromethyl)sulfonyl)-7-(3,5-difluorophenoxy)-1H-indene] | 1540 | –
36 | O=S(=O)(c1ccc(Oc2cc(F)cc(F)c2)c2c1CC(O)C2)C(F)F (centres unmarked) [Compound 22, 4-((Difluoromethyl)sulfonyl)-7-(3,5-difluorophenoxy)-2,3-dihydro-1H-inden-2-ol] | 1290 | –
37 | O=S(=O)(c1ccc(Oc2cc(Cl)c[n+]([O-])c2)c2c1[C@H](O)C(F)(F)C2)C(F)(F)F [Compound 260, (S)-3-Chloro-5-((2,2-difluoro-1-hydroxy-7-((trifluoromethyl)sulfonyl)-2,3-dihydro-1H-inden-4-yl)oxy)pyridine 1-oxide] | 170 | –
38 | O=C1CCc2c(Oc3cc(F)cc(Cl)c3)ccc(S(=O)(=O)C(F)F)c21 [Compound 18, 4-(3-chloro-5-fluorophenoxy)-7-((difluoromethyl)sulfonyl)-2,3-dihydro-1H-inden-1-one] | 2670 | –

Source: patent publication US10597366B2, “Aryl ethers and uses thereof” (Peloton Therapeutics, Inc., priority 2013, dated 2020)
